From patent publication US9475798B2, “Azetidine estrogen receptor modulators and uses thereof” (Genentech, Inc., priority 2013, dated 2016)
Read-outs that look alike come from different tables or passages of the source.

Key:
[1] = target: T1, ER-α (Homo sapiens, UniProt P03372); assay: Breast Cancer Cell ER-α In-Cell Western Assay (SP1); format: cell-based; details: MCF7 cells, 4 hours; 100-{100*[(100-% ER level of Example)/(100-% ER level of Fulvestrant)]}
T1 construct: endogenous in cells; host or cells: MCF7
T1 sequence (P03372 1-595): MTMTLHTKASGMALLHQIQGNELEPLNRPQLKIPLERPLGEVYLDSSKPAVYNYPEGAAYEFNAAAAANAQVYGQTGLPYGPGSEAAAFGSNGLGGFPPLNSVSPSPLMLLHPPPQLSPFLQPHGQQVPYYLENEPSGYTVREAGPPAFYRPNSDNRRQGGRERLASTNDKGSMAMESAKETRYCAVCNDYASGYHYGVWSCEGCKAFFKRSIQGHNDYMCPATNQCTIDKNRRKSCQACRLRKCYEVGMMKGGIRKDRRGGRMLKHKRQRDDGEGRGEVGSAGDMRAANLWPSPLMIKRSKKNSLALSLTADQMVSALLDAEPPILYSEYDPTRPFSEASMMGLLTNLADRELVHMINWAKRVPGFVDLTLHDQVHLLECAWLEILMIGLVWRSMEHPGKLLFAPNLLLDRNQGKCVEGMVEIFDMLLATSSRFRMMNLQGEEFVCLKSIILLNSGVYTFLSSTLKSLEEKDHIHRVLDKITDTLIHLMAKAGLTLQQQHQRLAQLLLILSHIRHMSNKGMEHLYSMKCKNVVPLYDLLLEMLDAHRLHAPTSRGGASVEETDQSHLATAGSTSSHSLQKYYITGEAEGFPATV
Procedure: MCF7 cells were trypsinized and washed twice in Phenol Red Free RPMI containing 5% Charcoal Dextran Stripped serum with 20 mM HEPES and NEAA, then adjusted to a concentration of 200,000 cells per mL with the same medium. […] At 4 hours post compound addition, the cells were fixed by adding 16 μL of 30% formalin to the 32 μL of cells and compound (10% formalin final concentration) for 20 minutes. Cells were then washed twice with PBS Tween 0.1% and then permeabilized in PBS 0.1% Triton (50 μl/well) for additional 15 minutes. The PBS 0.1% triton was decanted, and the cells were washed: LI-COR blocking buffer (50 μL/well) was added, the plate was spun at 3000 rpm, and then the blocking buffer was decanted. Additional LI-COR blocking buffer (50 μL/well) was added, and the cells were incubated overnight at 4° C. The blocking buffer was decanted, and the cells were incubated overnight at 4° C. with SP1 (Thermo Scientific) anti-ER rabbit monoclonal antibody diluted 1:1000 in LI-COR blocking buffer/0.1% Tween-20. Wells which were treated with blocking buffer with Tween but no antibody were used as a background control. Wells were washed twice with PBS Tween 0.1% to remove free SP1 antibodies, and the cells were incubated at room temp for 60-90 minutes in LI-COR goat anti-rabbit IRDye™ 800 CW (1:1000) and DRAQ5 DNA dye (1:10000 of 5 mM stock solution) diluted in LI-COR blocking buffer containing 0.1% Tween-20 and 0.01% SDS. Cells were then washed with 0.1% Tween-20/PBS three times. Plates were scanned on a LI-COR Odyssey infrared imaging system. Integrated intensities in the 800 nm channel and 700 nm channel were measured to determine levels of ER-α and DNA respectively. Percent ER levels were determined as follows: (Integrated intensity 800 nm sample/integrated intensity 700 nm sample)/(Integrated intensity 800 nm untreated cells/integrated intensity 700 nm untreated cells)×100=% ER-α levels.

[2] = test system: MCF-7 cells; assay: Breast Cancer Cell Viability Assay (MCF7, CellTiter-Glo); details: for MCF7 Viability Assay: % Viability relative to Fulvestrant: 5 days, 100-{100*[(100-% viability of Example)/(100-% viability of Fulvestrant)]};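 for all read-outs here: CellTiter-Glo luminescence read-out, background from cell-free medium subtracted, viability expressed against untreated cells, ten-point 1:5 compound dilution series spanning 10 to 0.000005 µM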
[3] = read-out: MCF7 Viability Assay IC50, 5 days' compound exposure

| Structure (SMILES) | ER-α In-Cell Western Assay (SP1): % ER-α remaining relative to Fulvestrant [1] [%] | MCF7 Viability Assay: % Viability relative to Fulvestrant [2] [%] | IC50 [2, 3] [nM] | IC50 ([2]; read-out: MCF7 Viability Assay IC50, 5 days' compound exposure, cell printed without unit) [nM] |
| --- | --- | --- | --- | --- |
| CC1=C(c2ccc(C(F)(F)F)cc2)C(c2ccc(OCCN3CC(CF)C3)cc2)Oc2ccc(O)cc21 (stereo not shown) [Example 22, 2-(4-(2-(3-(Fluoromethyl)azetidin-1-yl)ethoxy)phenyl)-4-methyl-3-(4-(trifluoromethyl)phenyl)-2H-chromen-6-ol] | 8 | 6 | 12 | – |
| CC1=C(c2ccc(Cl)cc2)C(c2ccc(OC[C@H](C)N3CC[C@@H](C)C3)cc2)Oc2ccc(O)cc21 (stereo partly drawn) [3-(4-chlorophenyl)-4-methyl-2-(4-((S)-2-((R)-3-methylpyrrolidin-1-yl)propoxy)phenyl)-2H-chromen-6-ol, reference compound] | 15 | 14 | 1.9 | – |
| CC1=C(c2ccc(F)c(F)c2)C(c2ccc(OCCN3CC(CF)C3)cc2)Oc2ccc(O)cc21 (stereo not shown) [Example 10, 3-(3,4-Difluorophenyl)-2-(4-(2-(3-(fluoromethyl)azetidin-1-yl)ethoxy)phenyl)-4-methyl-2H-chromen-6-ol] | 1 | 2 | 0.41 | – |
| CC1=C(c2ccc(F)c(F)c2)C(c2ccc(OC[C@H](C)N3CC[C@@H](C)C3)cc2)Oc2ccc(O)cc21 (stereo partly drawn) [3-(3,4-difluorophenyl)-4-methyl-2-(4-((S)-2-((R)-3-methylpyrrolidin-1-yl)propoxy)phenyl)-2H-chromen-6-ol, reference compound] | 14 | 19 | 0.7 | – |
| CC1=C(c2ccc(Cl)c(F)c2)C(c2ccc(OCCN3CC(CF)C3)cc2)Oc2ccc(O)cc21 (stereo not shown) [Example 16, 3-(4-Chloro-3-fluorophenyl)-2-(4-(2-(3-(fluoromethyl)azetidin-1-yl)ethoxy)phenyl)-4-methyl-2H-chromen-6-ol] | 1 | 1 | 0.71 | – |
| CC1=C(c2ccc(F)cc2)C(c2ccc(OC[C@H](C)N3CC[C@@H](C)C3)cc2)Oc2ccc(O)cc21 (stereo partly drawn) [3-(4-fluorophenyl)-4-methyl-2-(4-((S)-2-((R)-3-methylpyrrolidin-1-yl)propoxy)phenyl)-2H-chromen-6-ol, reference compound] | 18 | 17 | 0.4 | – |
| CC1=C(c2ccc(C#N)cc2)C(c2ccc(OC[C@H](C)N3CC[C@@H](C)C3)cc2)Oc2ccc(O)cc21 (stereo partly drawn) [4-(6-hydroxy-4-methyl-2-(4-((S)-2-((R)-3-methylpyrrolidin-1-yl)propoxy)phenyl)-2H-chromen-3-yl)benzonitrile, reference compound] | – | 15 | 10 | – |
| CC1=C(c2ccc(F)cc2)[C@@H](c2ccc(OCCN3CC(CF)C3)cc2)Oc2ccc(O)cc21 (single isomer, unassigned) [Example 2] | – | 3 | 26 | – |
| CC1=C(c2cccc(O)c2)C(c2ccc(OCCN3CC(C)C3)cc2)Oc2ccc(O)cc21 (stereo not shown) [Example 31, 3-(3-Hydroxyphenyl)-4-methyl-2-(4-(2-(3-methylazetidin-1-yl)ethoxy)phenyl)-2H-chromen-6-ol] | 14 | 13 | 0.2 | – |
| CC1=C(c2ccc(F)cc2)[C@H](c2ccc(OC[C@H](C)N3CC[C@@H](C)C3)cc2)Oc2ccc(O)cc21 [(S)-3-(4-fluorophenyl)-4-methyl-2-(4-((S)-2-((R)-3-methylpyrrolidin-1-yl)propoxy)phenyl)-2H-chromen-6-ol, reference compound] | 16 | 14 | – | 0.3 |
| CC1=C(c2ccc(F)cc2)[C@@H](c2ccc(OC[C@H](C)N3CC[C@@H](C)C3)cc2)Oc2ccc(O)cc21 [(R)-3-(4-fluorophenyl)-4-methyl-2-(4-((S)-2-((R)-3-methylpyrrolidin-1-yl)propoxy)phenyl)-2H-chromen-6-ol, reference compound] | 13 | – | – | – |
| CC1=C(c2ccc(Cl)cc2)C(c2ccc(OCCN3CC(CF)C3)cc2)Oc2cc(O)ccc21 (stereo not shown) [Example 28, 3-(4-Chlorophenyl)-2-(4-(2-(3-(fluoromethyl)azetidin-1-yl)ethoxy)phenyl)-4-methyl-2H-chromen-7-ol] | 3 | 6 | 0.8 | – |
| CC1=C(c2cc(F)c(F)c(F)c2)C(c2ccc(OCCN3CC(CF)C3)cc2)Oc2ccc(O)cc21 (stereo not shown) [Example 19, 2-(4-(2-(3-(Fluoromethyl)azetidin-1-yl)ethoxy)phenyl)-4-methyl-3-(3,4,5-trifluorophenyl)-2H-chromen-6-ol] | 0 | 0 | 0.42 | – |
| CC1=C(c2ccc(F)cc2)C(c2ccc(OCCN3CC(CF)C3)cc2)Oc2cc(O)ccc21 (stereo not shown) [Example 25, 2-(4-(2-(3-(Fluoromethyl)azetidin-1-yl)ethoxy)phenyl)-3-(4-fluorophenyl)-4-methyl-2H-chromen-7-ol] | 2 | 7 | 0.3 | – |
| CC1=C(c2ccc(Cl)cc2)C(c2ccc(OCCN3CC(CF)C3)cc2)Oc2ccc(O)cc21 (stereo not shown) [Example 4, 3-(4-Chlorophenyl)-2-(4-(2-(3-(fluoromethyl)azetidin-1-yl)ethoxy)phenyl)-4-methyl-2H-chromen-6-ol] | 3 | 3 | 1.2 | – |
| CC1=C(c2ccc(F)c(Cl)c2)C(c2ccc(OCCN3CC(CF)C3)cc2)Oc2ccc(O)cc21 (stereo not shown) [Example 13, 3-(3-Chloro-4-fluorophenyl)-2-(4-(2-(3-(fluoromethyl)azetidin-1-yl)ethoxy)phenyl)-4-methyl-2H-chromen-6-ol] | 2 | 1 | 0.53 | – |
| CC1=C(c2ccc(F)cc2)C(c2ccc(OCCN3CC(CF)C3)cc2)Oc2ccc(O)cc21 (stereo not shown) [Example 1, 2-(4-(2-(3-(Fluoromethyl)azetidin-1-yl)ethoxy)phenyl)-3-(4-fluorophenyl)-4-methyl-2H-chromen-6-ol] | – | 3 | 0.36 | – |
| CC1=C(c2ccc(C#N)cc2)C(c2ccc(OCCN3CC(CF)C3)cc2)Oc2ccc(O)cc21 (stereo not shown) [Example 7, 4-(2-(4-(2-(3-(Fluoromethyl)azetidin-1-yl)ethoxy)phenyl)-6-hydroxy-4-methyl-2H-chromen-3-yl)benzonitrile] | 2 | 0 | 3.5 | – |
